As a reminder, the Ki is the dissociation constant of the complex between target and ligand, obtained from inhibition or displacement.

For this experiment, the target named is D(3) dopamine receptor (Homo sapiens, UniProt P35462). In words: biochemical.
Sequence of D(3) dopamine receptor (P35462 whole entry): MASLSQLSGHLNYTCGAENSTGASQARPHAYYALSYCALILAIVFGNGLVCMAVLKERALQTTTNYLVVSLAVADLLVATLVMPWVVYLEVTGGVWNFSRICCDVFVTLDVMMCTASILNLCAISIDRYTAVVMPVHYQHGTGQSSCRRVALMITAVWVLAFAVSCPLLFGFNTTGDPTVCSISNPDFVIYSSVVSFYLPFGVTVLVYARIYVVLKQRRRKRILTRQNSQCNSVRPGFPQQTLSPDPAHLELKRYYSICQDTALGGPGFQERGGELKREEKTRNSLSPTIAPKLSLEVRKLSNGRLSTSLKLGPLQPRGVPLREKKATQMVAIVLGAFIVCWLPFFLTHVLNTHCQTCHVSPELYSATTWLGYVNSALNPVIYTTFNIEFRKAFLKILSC

Description: Displacement of [3H]-N-methylspiperone from human dopamine D3 receptor (unknown origin) expressed in HEK293 cells after 1 hr by liquid scintillation counting

As to `COc1ccccc1N1CCN(CCCCNC(=O)c2ccc3ccccc3n2)CC1`, the affinity, expressed as Ki, was 3.46 nM.
Turning to `O=C(NCCCCN1CCN(c2cccc3ccccc23)CC1)c1cc2ccccc2o1`, the Ki was determined as 0.244 nM. Against the preceding molecule, the Ki is about 14-fold lower.
For `COc1c(Cl)cccc1N1CCN(CC(O)CCNC(=O)c2cnc3ccccc3c2)CC1` (stereo not given), the Ki is 31.6 nM.
The value for `O=C(NCCCCN1CCN(c2cccc(Cl)c2Cl)CC1)c1cnc2ccc(F)cc2c1` was 0.57 nM.
The same measure for `O=C(NCCC(O)CN1CCN(c2cccc(Cl)c2Cl)CC1)c1cnc2ccc(F)cc2c1` (stereo not given): 8.05 nM; for `COc1c(Cl)cccc1N1CCN(CCCCNC(=O)c2cc3ccccc3o2)CC1`: 0.907 nM.
The value for `COc1ccc2[nH]c(C(=O)NCCCCN3CCN(c4cccc5ccccc45)CC3)cc2c1` was 0.173 nM; that for `COc1ccccc1N1CCN(CC(O)CCNC(=O)c2ccc3ccccc3n2)CC1` (stereo not given) was 97.9 nM; that for `COc1ccccc1N1CCN(CCCCNC(=O)c2ccc3cc(F)ccc3n2)CC1` was 2.51 nM.
Turning to `COc1ccccc1N1CCN(CC(O)CCNC(=O)c2ccc3cc(F)ccc3n2)CC1` (stereo not given), the Ki is 53.1 nM. This Ki lies about 21-fold higher than the previous one.
For the molecule `COc1ccccc1N1CCN(CCCCNC(=O)c2cnc3ccc(F)cc3c2)CC1`, the affinity corresponds to a Ki of 2.14 nM.
The same measure for `COc1ccccc1N1CCN(CC(O)CCNC(=O)c2cnc3ccc(F)cc3c2)CC1` (stereo not given): 44.8 nM.
In turn, `COc1ccccc1N1CCN(CC(O)CCNC(=O)c2cnc3ccc(C)cc3c2)CC1` (stereo not given) displayed an inhibition constant Ki of 52.9 nM.
`COc1ccc2ncc(C(=O)NCCC(O)CN3CCN(c4ccccc4OC)CC3)cc2c1` (stereo not given) returned a Ki of 69.9 nM.
The value for `COc1ccccc1N1CCN(CC(O)CCNC(=O)c2ccc3cccnc3c2)CC1` (stereo not given) was 37.7 nM.

These data come from ChEMBL document CHEMBL3596172 (J Med Chem, 2015).
